Columns and labels:
[1] = target: T1, BA/F3-FLT3-ITD + F691L cells (Homo sapiens, UniProt P36888, F691L, cells depend on it, form not given); test: BA/F3-FLT3-ITD + F691L cell proliferation assay (CellTiter-Glo); type: cell-based, murine; conditions: BaF3 FLT3 ITD/F691L cells; read-out: Cell Activity (IC50 μM) BaF3_FLT3_ITD/F691L
T1 sequence (P36888 1-993 F691L): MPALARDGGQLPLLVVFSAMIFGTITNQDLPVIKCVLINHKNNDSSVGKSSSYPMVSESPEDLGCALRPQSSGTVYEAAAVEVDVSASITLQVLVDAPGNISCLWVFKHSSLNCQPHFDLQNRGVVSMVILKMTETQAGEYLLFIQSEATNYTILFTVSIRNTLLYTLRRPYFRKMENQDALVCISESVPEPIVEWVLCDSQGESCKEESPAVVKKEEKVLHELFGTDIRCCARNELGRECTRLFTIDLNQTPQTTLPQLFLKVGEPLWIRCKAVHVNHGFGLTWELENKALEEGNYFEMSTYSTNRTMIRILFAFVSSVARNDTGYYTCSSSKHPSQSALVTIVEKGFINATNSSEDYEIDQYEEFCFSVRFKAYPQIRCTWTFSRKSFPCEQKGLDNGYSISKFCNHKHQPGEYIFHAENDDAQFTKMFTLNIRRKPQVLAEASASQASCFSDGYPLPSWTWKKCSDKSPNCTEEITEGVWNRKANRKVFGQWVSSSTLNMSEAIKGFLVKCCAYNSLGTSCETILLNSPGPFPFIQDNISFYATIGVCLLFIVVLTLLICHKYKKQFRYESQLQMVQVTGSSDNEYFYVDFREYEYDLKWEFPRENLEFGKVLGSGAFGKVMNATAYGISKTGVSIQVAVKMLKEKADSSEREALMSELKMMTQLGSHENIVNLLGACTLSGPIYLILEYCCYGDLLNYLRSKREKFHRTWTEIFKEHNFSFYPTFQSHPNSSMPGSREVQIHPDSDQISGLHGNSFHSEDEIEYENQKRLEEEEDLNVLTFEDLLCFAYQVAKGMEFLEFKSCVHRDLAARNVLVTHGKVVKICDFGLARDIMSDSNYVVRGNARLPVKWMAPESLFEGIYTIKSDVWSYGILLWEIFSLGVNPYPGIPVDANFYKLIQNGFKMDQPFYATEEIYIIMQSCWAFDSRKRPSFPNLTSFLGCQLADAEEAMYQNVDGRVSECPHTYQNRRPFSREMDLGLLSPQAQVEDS
How it was run: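 Murine BA/F3 cells transfected with full-length FLT3 carrying ITD plus D835Y or F691L, grown without IL-3 so growth depends on FLT3. Seeded at 1×10^4 cells/well and dosed with 8 points, 10 to 0.0046 μM, 0.2% DMSO, for three days at 37 °C. IC50 from CellTiter-Glo luminescence (ATP content).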

c-Kit = c-Kit (Homo sapiens, UniProt P10721); test: c-Kit biochemical assay (per US 2007/0032519)
Sequence of c-Kit (P10721 26-976): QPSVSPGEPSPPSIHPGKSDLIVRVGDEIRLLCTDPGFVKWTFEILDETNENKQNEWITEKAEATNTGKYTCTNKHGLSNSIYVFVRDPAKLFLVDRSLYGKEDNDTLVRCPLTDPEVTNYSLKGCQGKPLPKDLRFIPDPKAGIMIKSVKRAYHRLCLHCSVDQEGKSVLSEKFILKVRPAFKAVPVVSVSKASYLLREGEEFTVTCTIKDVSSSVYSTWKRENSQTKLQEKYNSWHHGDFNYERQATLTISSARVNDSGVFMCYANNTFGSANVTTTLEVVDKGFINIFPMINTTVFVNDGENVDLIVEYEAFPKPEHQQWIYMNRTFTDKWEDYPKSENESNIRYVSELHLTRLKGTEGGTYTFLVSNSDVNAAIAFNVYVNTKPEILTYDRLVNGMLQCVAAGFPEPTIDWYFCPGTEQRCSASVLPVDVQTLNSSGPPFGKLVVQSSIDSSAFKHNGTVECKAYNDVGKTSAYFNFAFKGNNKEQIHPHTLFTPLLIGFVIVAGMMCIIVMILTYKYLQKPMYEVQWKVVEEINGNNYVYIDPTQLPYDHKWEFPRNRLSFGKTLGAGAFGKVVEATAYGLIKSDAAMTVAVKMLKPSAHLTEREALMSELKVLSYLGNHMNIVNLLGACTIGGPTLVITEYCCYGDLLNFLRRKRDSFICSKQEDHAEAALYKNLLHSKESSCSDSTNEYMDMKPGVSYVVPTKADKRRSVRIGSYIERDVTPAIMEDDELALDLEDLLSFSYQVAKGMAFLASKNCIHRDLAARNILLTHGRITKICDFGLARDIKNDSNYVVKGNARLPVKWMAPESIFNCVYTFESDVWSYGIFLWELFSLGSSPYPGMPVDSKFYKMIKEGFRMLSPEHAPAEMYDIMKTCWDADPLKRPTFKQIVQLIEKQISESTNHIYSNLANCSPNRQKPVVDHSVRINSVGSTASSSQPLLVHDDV
How it was run: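 Biochemical kinase inhibition run per US 2007/0032519; values reported as binned IC50 ranges (0.0001–1 μM, 1–10 μM, 10–200 μM).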

Compound `CN(c1cccc(-c2cnc3[nH]cc(-c4ccc5ncn(C)c5c4)c3c2)c1)S(C)(=O)=O` [P-120, N-methyl-N-[3-[3-(3-methylbenzimidazol-5-yl)-1H-pyrrolo[2,3-b]pyridin-5-yl]phenyl]methanesulfonamide] has a GI50 [1] of 0.0001 to 1 µM and an IC50 (c-Kit) of 1 to 10 µM.

`COc1cc(-c2cnc3[nH]cc(-c4ccc5ncn(C(C)(C)C)c5c4)c3n2)ccn1` [P-099, 7-(3-tert-butylbenzimidazol-5-yl)-2-(2-methoxy-4-pyridyl)-5H-pyrrolo[2,3-b]pyrazine] gave a GI50 [1] of 0.0001 to 1 µM and an IC50 (c-Kit) of 1 to 10 µM.

`COc1cnc2[nH]cc(-c3ccc4ncn(-c5cccc(F)c5)c4c3)c2c1` [P-128, 1-(3-fluorophenyl)-6-(5-methoxy-1H-pyrrolo[2,3-b]pyridin-3-yl)benzimidazole] gave a GI50 [1] of 0.0001 to 1 µM and an IC50 (c-Kit) of 10 to 200 µM.

`COc1cnc2[nH]cc(-c3ccc4ncn(-c5cccc(C#N)c5)c4c3)c2c1` [P-135, 3-[6-(5-methoxy-1H-pyrrolo[2,3-b]pyridin-3-yl)benzimidazol-1-yl]benzonitrile] was tested, and the GI50 [1] was 0.0001 to 1 µM and the IC50 (c-Kit) was 10 to 200 µM.

`COc1cnc2[nH]cc(-c3ccc4ncn(-c5ccc(F)c(C)c5)c4c3)c2c1` [P-129, 1-(4-fluoro-3-methyl-phenyl)-6-(5-methoxy-1H-pyrrolo[2,3-b]pyridin-3-yl)benzimidazole] gave a GI50 [1] of 0.0001 to 1 µM and an IC50 (c-Kit) of 10 to 200 µM.

Compound `CC(C)(C)n1cnc2ccc(-c3c[nH]c4ncc(-c5cccc(NS(C)(=O)=O)c5)nc34)cc21` [P-097, N-[3-[7-(3-tert-butylbenzimidazol-5-yl)-5H-pyrrolo[2,3-b]pyrazin-2-yl]phenyl]methanesulfonamide] has a GI50 [1] of 0.0001 to 1 µM and an IC50 (c-Kit) of 0.0001 to 1 µM.

In the case of `COc1cc(-c2cnc3[nH]cc(-c4ccc5ncn(C6CCCNC6)c5c4)c3n2)cc(OC)n1` (stereo not drawn) [P-195, 2-(2,6-dimethoxy-4-pyridyl)-7-[3-(3-piperidyl)benzimidazol-5-yl]-5H-pyrrolo[2,3-b]pyrazine], the GI50 [1] is reported as 0.0001 to 1 µM.

Compound `CC(C)(C)n1cnc2ccc(-c3c[nH]c4ncc(C#Cc5cccc(C#N)c5)cc34)cc21` [P-242, 3-[2-[3-(3-tert-butylbenzimidazol-5-yl)-1H-pyrrolo[2,3-b]pyridin-5-yl]ethynyl]benzonitrile] has a GI50 [1] of 1 to 10 µM.

For `CC(C)S(=O)(=O)Nc1cccc(-c2cnc3[nH]cc(-c4ccc5ncn(C6CCCNC6)c5c4)c3c2)c1` (stereo not drawn) [P-215, N-[3-[3-[3-(3-piperidyl)benzimidazol-5-yl]-1H-pyrrolo[2,3-b]pyridin-5-yl]phenyl]propane-2-sulfonamide], the GI50 [1] was 0.0001 to 1 µM.

— US10160755B2 (Plexxikon Inc., priority 2015, dated 2018)
